Here are results for eleven substances from patent US20120016011A1, “RNA Interference Mediated Inhibition of Connective Tissue Growth Factor (CTGF) Gene Expression Using Short Interfering Nucleic Acid (siNA)” (Merck Sharp & Dohme Corp., priority 2009, published 2012).

In data set [1] the test system is CTGF mRNA. Nature of the data set: CTGF mRNA knockdown (Taqman RT-PCR) after siNA transfection of human NHLF cells. Format: cell-based. Particulars: 10 nM siNA, 24 hrs, average of 3 experiments, vs non-targeting control. How it is done:
NHLF (Normal human lung fibroblasts; Lonza cat# CC-2512): Cells were cultured at 37° C. in the presence of 5% CO2 and grown in Fibroblast Basal Medium (Lonza cat# CC-3132) supplemented with 2% FBS and growth factors (provided with the kit) and 100 μg/mL of streptomycin and 100 U/mL penicillin.
(§1) Cells were plated in all wells of a tissue-culture treated, 96-well plate at a final count of 5000 cells/well in […], of the appropriate culture media. The cells were cultured for 24 hours after plating at 37° C. in the presence of 5% CO2.
(§2) After 24 hours, complexes containing siNA and RNAiMax were created as follows: A solution of RNAiMax diluted 33-fold in OPTI-MEM was prepared. In parallel, solutions of the siNAs for testing were prepared to a final concentration of 120 nM in OPTI-MEM. After incubation of RNAiMax/OPTI-MEM solution at room temperature for 5 min, an equal volume of the siNA solution and the RNAiMax solution were added together for each of the siNAs.
(§3) This solution was incubated at room temperature for 20 minutes. After incubation, 20 uL of the solution was added to each of the relevant wells. The final concentration of siNA in each well was 10 nM and the final volume of RNAiMax in each well was 0.3 ul.
(§4) The time of incubation with the RNAiMax-siNA complexes was 24 hours and there was no change in media between transfection and harvesting, unless otherwise indicated.
(§5) RNA was extracted from a 96-well plate using the TaqMan® Gene Expression Cells-to-CT™ Kit (Cat# 4399002) with a modified protocol. Briefly, a 60 uL (1 plate) or 110 uL (2 plates) of the Lysis Solution with DNase I was dispensed into each well of the Lysis Buffer Plate (twin.tec full skirt plate). The lysis buffer and stop plates were stored at 4° C. until the cells were washed.
(§6) The plate was spun at 1100 rpm for 5 minutes. The culture medium was aspirated and discarded from the wells of the culture plate. The lysis was performed automatically using a BioMek FX instrument and method. After the Biomek method was completed, the lysis plate was incubated for 2 min. at room temperature. The lysis plate can be stored for 2 hours at 4° C., or at −20° C. or −80° C. for two months.
(§7) Each well of the reverse transcription plate required 10 uL of 2× reverse transcriptase Buffer, 1 uL of 20× reverse transcription enzyme and 2 uL of nuclease-free water. The reverse transcription master mix was prepared by mixing 2× reverse transcription buffer, 20× reverse transcription enzyme mix, and nuclease-free water. 13 uL of the reverse transcription master mix was dispensed into each well of the reverse transcription plate (semi-skirted). A separate reverse transcription plate was prepared for each cell plate. The plate was loaded onto a Biomek NX or Biomek FX Dual -96 and the Biomek method was run. The program is programmed to automatically added 7 uL of lysate from the cell lysis procedure described above into each well of the reverse transcription plate. The plate is sealed and spun on a centrifuge (1000 rpm for 30 seconds) to settle the contents to the bottom of the reverse transcription plate. The plate is placed in a thermocycler at 37° C. for 60 min, 95° C. for 5 min, and 4° C. until the plate is removed from the thermocycler. Upon removal, if not used immediately, the plate was frozen at −20° C.
(§8) A series of probes and primers were used to detect the various mRNA transcripts of the genes of β-Actin (human cell line only), and of CTGF and GAPDH in mouse and human cell lines. All Taqman probes and primers for the experiments here-in described were supplied as pre-validated sets by Applied Biosystems, Inc. (see Table 3).
The assays were performed on an ABI 7900 instrument, according to the manufacturer's instructions. A TaqMan Gene Expression Master Mix (provided in the Cells-to-CT™, Applied Biosystems, Cat # 4399002) was used. The PCR reactions were carried out at 50° C. for 2 min, 95° C. for 20 min followed by 40 cycles at 95° C. for 15 secs and 60° C. for 1 min. […]

Data set [2] relates to CTGF mRNA. Kind of data set: CTGF mRNA knockdown (Taqman RT-PCR) after siNA transfection of mouse NIH 3T3 cells. Format: cell-based. Particulars: mouse NIH3T3 cells, 10 nM siNA, 24 hrs, average of 3 experiments, vs non-targeting control. How it is done: NIH 3T3 (mouse; ATCC cat# CRL-1658): Cells were cultured at 37° C. in the presence of 5% CO2 and grown in Dulbecco's modified Eagle's medium (DMEM) with 4 mM L-glutamine adjusted to contain 1.5 g/L sodium bicarbonate and 4.5 g/L glucose and supplemented with fetal bovine serum at a final concentration of 10%, 100 μg/mL of streptomycin, and 100 U/mL penicillin.
as §1, §2, §3, §4, §5, §6, §7, §8
The assays were performed on an ABI 7900 instrument, according to the manufacturer's instructions. A TaqMan Gene Expression Master Mix (provided in the Cells-to-CT™, Applied Biosystems, Cat # 4399002) was used. […]

[invAb] = inverted abasic unit; m = 2'-O-methyl; r = 2'-OH (RNA); f = 2'-fluoro

Regarding “48065-DC: siNA duplex; sense SEQ ID NO: 95 B GccuGucAAGuuuGAGcuu TTB; antisense SEQ ID NO: 96 AAGcucAAAcuuGAcAGGcUU (sense GCCUGUCAAGUUUGAGCUUTT; antisense AAGCUCAAACUUGACAGGCUU; sense: DNA at AGT, 2'-fluoro at CU, [invAb] at 5' end, 3' end, backbone not given here; antisense: sugars from the 5' end rrrfffmmmfffmmfmmmfmm, backbone not given here)”, in the data set with CTGF mRNA [1], the “% KD Human” value is 19 ± 6%. Besides, the “% KD Mouse” value with CTGF mRNA [2] came out at 46 ± 7%.

Regarding “48068-DC: siNA duplex; sense SEQ ID NO: 101 B uGGuuucGAGAcAGuuuAc TTB; antisense SEQ ID NO: 102 GUAAAcuGucucGAAAccAUU (sense UGGUUUCGAGACAGUUUACTT; antisense GUAAACUGUCUCGAAACCAUU; sense: DNA at AGT, 2'-fluoro at CU, [invAb] at 5' end, 3' end, backbone not given here; antisense: sugars from the 5' end rrrmmffmffffmmmmffmmm, backbone not given here)”, in the data set on CTGF mRNA [1], the “% KD Human” value was found to be 12 ± 22%. For the same substance, the “% KD Mouse” value with CTGF mRNA [2] came out at 65 ± 3%.

Consider “48071-DC: siNA duplex; sense SEQ ID NO: 107 B ccAAcuAuGAuGcGAGccA TTB; antisense SEQ ID NO: 108 UGGcucGcAucAuAGuuGGUU (sense CCAACUAUGAUGCGAGCCATT; antisense UGGCUCGCAUCAUAGUUGGUU; sense: DNA at AGT, 2'-fluoro at CU, [invAb] at 5' end, 3' end, backbone not given here; antisense: sugars from the 5' end rrrfffmfmffmfmmffmmmm, backbone not given here)”, for which the “% KD Human” value in the data set on CTGF mRNA [1] stood at 30 ± 15%. In addition, the “% KD Mouse” value in the data set on CTGF mRNA [2] came out at 21 ± 5%.

For “48061-DC: siNA duplex; sense SEQ ID NO: 87 B AcucAuuAGAcuAuAAcuu TTB; antisense SEQ ID NO: 88 AAGuuAuAGucuAAuGAGuUU (sense ACUCAUUAGACUAUAACUUTT; antisense AAGUUAUAGUCUAAUGAGUUU; sense: DNA at AGT, 2'-fluoro at CU, [invAb] at 5' end, 3' end, backbone not given here; antisense: sugars from the 5' end rrrffmfmmfffmmfmmmfmm, backbone not given here)”, the “% KD Human” value with CTGF mRNA [1] turned out to be 30 ± 12%. In addition, the “% KD Mouse” value in the data set with CTGF mRNA [2] is reported as 73 ± 5%.

Turning to “48078-DC: siNA duplex; sense SEQ ID NO: 121 B GGuAcuAGcuGAGGuuAuu TTB; antisense SEQ ID NO: 122 AAUAAccucAGcuAGuAccUU (sense GGUACUAGCUGAGGUUAUUTT; antisense AAUAACCUCAGCUAGUACCUU; sense: DNA at AGT, 2'-fluoro at CU, [invAb] at 5' end, 3' end, backbone not given here; antisense: sugars from the 5' end rrrmmffffmmffmmfmffmm, backbone not given here)”, in the data set with CTGF mRNA [1], the “% KD Human” value was 31 ± 6%. For the same substance, the “% KD Mouse” value in the data set with CTGF mRNA [2] stood at 69 ± 1%.

As to “48067-DC: siNA duplex; sense SEQ ID NO: 99 B GGGucAAGcuGccuGGGAA TTB; antisense SEQ ID NO: 100 UUCccAGGcAGcuuGAcccUU (sense GGGUCAAGCUGCCUGGGAATT; antisense UUCCCAGGCAGCUUGACCCUU; sense: DNA at AGT, 2'-fluoro at CU, [invAb] at 5' end, 3' end, backbone not given here; antisense: sugars from the 5' end rrrffmmmfmmfffmmfffmm, backbone not given here)”, the “% KD Human” value in the data set on CTGF mRNA [1] was −3 ± 31%. In addition, the “% KD Mouse” value in the data set with CTGF mRNA [2] is recorded as 26 ± 5%.

For the substance “48043-DC: siNA duplex; sense SEQ ID NO: 51 B GAcAuAccGAGcuAAAuuc TTB; antisense SEQ ID NO: 52 GAAuuuAGcucGGuAuGucUU (sense GACAUACCGAGCUAAAUUCTT; antisense GAAUUUAGCUCGGUAUGUCUU; sense: DNA at AGT, 2'-fluoro at CU, [invAb] at 5' end, 3' end, backbone not given here; antisense: sugars from the 5' end rrrfffmmfffmmfmfmffmm, backbone not given here)”, the “% KD Human” value in the data set on CTGF mRNA [1] turned out to be 57 ± 7%. The “% KD Mouse” value in the data set with CTGF mRNA [2] is 48 ± 0%.

On to “48062-DC: siNA duplex; sense SEQ ID NO: 89 B ccAcucuGccAGuGGAGuu TTB; antisense SEQ ID NO: 90 AACuccAcuGGcAGAGuGGUU (sense CCACUCUGCCAGUGGAGUUTT; antisense AACUCCACUGGCAGAGUGGUU; sense: DNA at AGT, 2'-fluoro at CU, [invAb] at 5' end, 3' end, backbone not given here; antisense: sugars from the 5' end rrrfffmffmmfmmmmfmmmm, backbone not given here)”, for which, in the data set on CTGF mRNA [1], the “% KD Human” value is on record as −1 ± 18%. Further, in the data set on CTGF mRNA [2], the “% KD Mouse” value worked out at 12 ± 2%.

“48040-DC: siNA duplex; sense SEQ ID NO: 45 B GAGuGGAGcGccuGuuccA TTB; antisense SEQ ID NO: 46 UGGAAcAGGcGcuccAcucUU (sense GAGUGGAGCGCCUGUUCCATT; antisense UGGAACAGGCGCUCCACUCUU; sense: DNA at AGT, 2'-fluoro at CU, [invAb] at 5' end, 3' end, backbone not given here; antisense: sugars from the 5' end rrrmmfmmmfmffffmfffmm, backbone not given here)”: the “% KD Human” value with CTGF mRNA [1] is recorded as 13 ± 18%. Besides, in the data set on CTGF mRNA [2], the “% KD Mouse” value was −1 ± 3%.

“48066-DC: siNA duplex; sense SEQ ID NO: 97 B AcAGuuuAcAcuuGAcAGu TTB; antisense SEQ ID NO: 98 ACUGucAAGuGuAAAcuGuUU (sense ACAGUUUACACUUGACAGUTT; antisense ACUGUCAAGUGUAAACUGUUU; sense: DNA at AGT, 2'-fluoro at CU, [invAb] at 5' end, 3' end, backbone not given here; antisense: sugars from the 5' end rrrmffmmmfmfmmmffmfmm, backbone not given here)”: the “% KD Human” value in the data set on CTGF mRNA [1] stood at 17 ± 7%. In the data set on CTGF mRNA [2], the “% KD Mouse” value turned out to be 80 ± 1%.

Consider “48077-DC: siNA duplex; sense SEQ ID NO: 119 B AGGAAGuAAGGGAcAcGAA TTB; antisense SEQ ID NO: 120 UUCGuGucccuuAcuuccuUU (sense AGGAAGUAAGGGACACGAATT; antisense UUCGUGUCCCUUACUUCCUUU; sense: DNA at AGT, 2'-fluoro at CU, [invAb] at 5' end, 3' end, backbone not given here; antisense: sugars from the 5' end rrrmfmffffffmffffffmm, backbone not given here)”, for which the “% KD Human” value in the data set with CTGF mRNA [1] stood at 19 ± 2%. Moreover, the “% KD Mouse” value in the data set on CTGF mRNA [2] was found to be 71 ± 4%.
